Assay results: US20100160251A1, “IMIDAZO COMPOUNDS” (priority 2006, published 2010)

System: γδT lymphocyte
Test: Induction of γδT lymphocyte proliferation, human peripheral blood cells, BrdU labelling after 3 days of culture
Type: cell-based
Method: The activity on γδT lymphocyte proliferation is tested in the following way: human peripheral blood cells are cultured in the presence of an RPMI-type culture medium supplemented with L-glutamine (2 mM), penicillin/streptomycin (50 μg/50 IU/ml) and foetal calf serum (10%). The C-glycoside derivatives are added at various concentrations (10 to 0.05 mM), along with phytohemagglutin (PHA at […]), a positive control for lymphocyte proliferation.

CC(=O)C[C@H]1O[C@H](CO)[C@@H](O[C@@H]2O[C@H](CO)[C@H](O)[C@H](O)[C@H]2O)[C@H](O)[C@H]1O [Compound 1, 1-(C-β-D-lactopyranosyl)propan-2-one]
% stimulation relative to the control (concentration 0.05 (mM)): 100% | % stimulation relative to the control (concentration 0.1 (mM)): 110% | % stimulation relative to the control (concentration 0.5 (mM)): 82% | % stimulation relative to the control (concentration 1 (mM)): 108% | % stimulation relative to the control (concentration 5 (mM)): 169% | % stimulation relative to the control (concentration 10 (mM)): 214%
